The test system of one test is RAW264.7 macrophages. Description: Intracellular uptake of FITC-rmCIRP by macrophages (flow cytometry, confocal microscopy). The test is classed as cell-based, mouse. The settings on record: RAW264.7, FITC-rmCIRP 1 μg/mL co-incubated with test substance (peptide 10 μg/mL), 1 hour, vs FITC-rmCIRP alone. As to the method:
FIG. 3. Effects of MOP peptides MOP-3, MOP-8 and MOP-14 on eCIRP. Flow cytometry experiment whereby RAW264.7 macrophages were treated for 1 hour according to respective group: PBS (volume-equivalent), FITC-rmCIRP (1 μg/mL), or a mixture of FITC-rmCIRP (1 μg/mL) with each respective peptide (10 μg/mL) after co-incubating for 30 minutes. Intracellular FITC-rmCIRP was analyzed by flow cytometry. Median fluorescence intensity (MFI) reported as percentage relative to PBS-treated RAW264.7 cells. Data from two independent experiments are expressed as mean±SEM and compared by one-way ANOVA and SNK test. *p<0.05 vs. PBS, #p<0.05 vs. eCIRP.
(§1) Computational modeling was used to determine the likely domain of MFG-E8's binding to eCIRP. The known amino acid (AA) sequence of this domain was used to develop and test potential therapeutic peptides. An MFG-E8 derived oligopeptide, MOP3, was developed based on 15 AA from MFG-E8 discoidin 2 domain (mimicking MFG-E8's C-terminal) and tagged with the 3 AA, RGD, (mimicking MFG-E8's binding capacity for the integrin receptor at the N-terminal). Binding of MOP3 to CIRP was quantified using Surface Plasmon Resonance (SPR) analysis. Macrophages (RAW264.7 cells) were treated with FITC-recombinant mouse (rm)-CIRP or co-incubated MOP3 and FITC-rmCIRP with and without a. Br-integrin Ab. After 1 h, cells were fixed and analyzed for intracellular FITC-rmCIRP by flow cytometry. Macrophages were stimulated with rmCIRP or co-incubated mixture of MOP3 and rmCIRP. After 4 h, cell culture supernatants were analyzed for inflammatory cytokine, TNFα.
Mouse macrophage cell line, RAW264.7 cells were obtained from American Type Culture Collection (ATCC) and cultured in DMEM media with 10% FBS, 1% penicillin and streptomycin, and 1% glutamine. Cells were kept in 37° C. incubator under humidified conditions containing 5% CO2.
rmCIRP was labeled using a FITC Conjugation Kit (Abcam, ab188285), and rmMFG-E8 was labeled using Alexa Fluor Conjugation Kit (Abcam, ab269821), both according to respective manufacturer's instructions.
In order to visualize cellular uptake, we initially utilized TRITC-BSA as an internal probe, as BSA is taken up into cells primarily by endocytosis and retained intracellularly after fixation (27, 28). For further visualization of intracellular localization, we utilized LAMP1 primary antibody (as it is distributed among endolysosomal organelles and serves as a marker for lysosomal compartments) (29), and utilized lysotracker in live cell experiments (as it allows for imaging of dynamics of lysosome vesicle movements) (30). RAW264.7 cells were treated in various conditions with rmCIRP, rmMFG-E8, and inhibitory antibody against auß3-integrin (Bioss antibodies, bs-1310R) for 4 hours. Cells were fixed with 4% paraformaldehyde (PFA), washed with 1×PBS, permeabilized using 0.3% Triton x100, and blocked using 5% BSA 100 mM Glycine in PBS prior to primary antibody treatment. After incubation with secondary antibodies, cells were washed and mounted with ProLong Gold antifade reagent (Invitrogen). For live cell imaging, cells remained in treatment conditions and were imaged under CO2. Staining procedures were performed according to the manufacturers' instructions utilizing respective fluorescent dyes and probes. For all imaging, confocal microscopy images were obtained using a Zeiss LSM880 confocal microscope equipped with a 63× objective. Images were quantified and analyzed using Image J, FIJI.(31) Flow cytometry.
To detect changes in internalized eCIRP in the presence of MFG-E8, RAW264.7 cells were seeded in 12-well plates (approximately 3×10^5 cells/well) and were treated with FITC-eCIRP. Treatment groups consisted of FITC-eCIRP, FITC-eCIRP with MFG-E8, FITC-eCIRP with MFG-E8 and αvβ3-integrin antibody (0.5 μg/mL), or FITC-eCIRP with MFG-E8 and IgG isotype (0.5 μg/mL). Similar experiments were conducted with MOP3 instead of MFG-E8 in parallel groups. […]
In general terms: Flow cytometry measures light scatter and fluorescence of single cells or particles in a stream.

Another test deals with RAW264.7 cells. In words: eCIRP-induced cytokine release in RAW264.7 cells (ELISA of supernatants). The settings on record: RAW264.7, rmCIRP 1 μg/mL, 4 hours, vs rmCIRP alone. The test is classed as cell-based, mouse. As to the method:
FIG. 2. Effects of MOP peptides on TNFα levels. RAW264.7 macrophages were cultured and treated with either volume-equivalent PBS, recombinant murine (rm) CIRP (eCIRP; 1 μg/mL), or rmCIRP with each respective peptide (10 μg/mL). After 4 hours, cell supernatants were assessed for TNFα levels by ELISA. Experiments were performed 3 times, and all data were used for analysis. Data are expressed as mean±SEM and compared by one-way ANOVA and SNK test. *p<0.05 vs. PBS, #p<0.05 vs. eCIRP.
FIG. 4. eCIRP-induced inflammation is attenuated by MOP3. RAW264.7 cells were treated according to respective groups: PBS (volume equivalent), rmCIRP (1 μg/mL), or rmCIRP with MOP3 at increasing doses. After 4 hours, cell supernatants were analyzed for TNFα levels by ELISA. Experiments were performed 3 times, and all data were used for analysis. Data are expressed as mean #SEM and compared by one-way ANOVA and SNK test. *p<0.05 vs. PBS, #p<0.05 vs. eCIRP.
as §1
Mouse macrophage cell line, RAW264.7 cells were obtained from American Type Culture Collection (ATCC) and cultured in DMEM media with 10% FBS, 1% penicillin and streptomycin, and 1% glutamine. Cells were kept in 37° C. incubator under humidified conditions containing 5% CO2. […]
The mouse macrophage cell culture supernatants were analyzed for cytokine levels using ELISA kits (BD Biosciences, CA). […] TNF-α and IL-6 levels were measured in cell supernatants by ELISA in accordance with respective manufacturers' instructions (BD Biosciences, CA). Blood was collected, centrifuged at 4,000 RPM for 10 minutes, and sera was separated and analyzed for cytokine levels using ELISA kits (BD Biosciences, CA). TNF-α and IL-6 levels in the serum were measured by ELISA in accordance with respective manufacturers' instructions.
Background: In an ELISA, binding on a coated surface is turned into a signal by an enzyme label.

Turning to “MOP3-modification to “RGT”: modified peptide whereby the Arg-Gly-Asp AAs of MOP3 were edited to Arg-Gly-Thr (RGT) (RGTSSSYKTWNLRAFGWY) [reference compound]”, the “intracellular FITC-rmCIRP uptake (flow cytometry)” value (from here on “intracellular FITC-rmCIRP uptake”) in the test on RAW264.7 macrophages is “loss of ability to internalize FITC-eCIRP”.
With “RGDVTGIITQGARDFGHI (listed as Mus musculus) [MOP8, RGD-tagged segment of murine MFG-E8 discoidin domain 2]”, the “intracellular FITC-rmCIRP uptake” value in the test on RAW264.7 macrophages is reported as “only a single peptide screened, peptide-3, could increase intracellular uptake”. The “TNFα levels in cell supernatants” value with RAW264.7 cells is reported as “capable of attenuating TNFα release”.
As for “RGDPFMARYVRVLPVSWH (listed as Mus musculus) [MOP14, RGD-tagged segment of murine MFG-E8 discoidin domain 2]”, in the test on RAW264.7 macrophages, the “intracellular FITC-rmCIRP uptake” value is listed as “only a single peptide screened, peptide-3, could increase intracellular uptake”. Also, the “TNFα levels in cell supernatants” value in the test with RAW264.7 cells was “capable of attenuating TNFα release”.

The record behind these values is patent US20240197828A1, “Chimeric molecule to treat sepsis and other inflammatory conditions” (THE FEINSTEIN INSTITUTES FOR MEDICAL RESEARCH, priority 2022, published 2024).
